In article PMC2375285, “Inhibition of all-TRANS-retinoic acid metabolism by R116010 induces antitumour activity” (British Journal of Cancer, 2002):

What was measured:
[1] = system: RA metabolism in intact T47D cells; experiment: Microcolumn assay for RA metabolism in intact T47D cells; format: cell-based, human; conditions: intact T47D cells pretreated 16 h with 1 μM RA; 0.1 μM [3H]RA, 90 min; read-out: IC50 inhibition of RA metabolism
Procedure: RA metabolism was quantitatively determined using the microcolumn assay as described previously ([Krekels et al, 1997]). […] Cells were then washed twice with culture medium, harvested and resuspended at 4×10^6 cells ml^−1. An aliquot of this cell suspension (450 μl) was incubated for 90 min in the presence of 0.1 μM [11, 12-^3H(N)]RA, after which 2 ml acetonitrile was added. After centrifugation for 10 min at 780 g, the resulting deproteinized supernatant was acidified with 2.5 ml of 40 mM acetic acid and applied to a 3 ml C18 Bond Elut LRC column (Varian, Harbor City, CA, USA; pretreated with 4 ml distilled water) under a vacuum of 127 mmHg using VAC ELUT SPS-24 and the effluent was collected. The column was eluted with 1 ml 40% acetonitrile and the effluent was collected in the same vial. Radioactivity in the collected effluent, containing the polar metabolites, was determined in a Packard Tri-carb 4530 liquid scintillation analyzer. Optiphase ‘Hi Safe II’ (Wallac, Milton Keynes, UK) was used as a scintillator. Data are presented as mean±s.d. of three or four independent experiments. The IC50-values were calculated by non-linear regression analysis using SigmaPlot 4.01 software.

17,20-lyase (CYP17) = molecular target: T1, 17,20-lyase (CYP17) (Rattus norvegicus, UniProt P11715); experiment: 17,20-lyase in rat testicular S10 fraction; format: biochemical
T1 construct: 17,20-lyase (CYP17) in rat testicular S10 fractions; from tissue; host or cells: rat testis, S10 fraction
T1 sequence (P11715 1-507): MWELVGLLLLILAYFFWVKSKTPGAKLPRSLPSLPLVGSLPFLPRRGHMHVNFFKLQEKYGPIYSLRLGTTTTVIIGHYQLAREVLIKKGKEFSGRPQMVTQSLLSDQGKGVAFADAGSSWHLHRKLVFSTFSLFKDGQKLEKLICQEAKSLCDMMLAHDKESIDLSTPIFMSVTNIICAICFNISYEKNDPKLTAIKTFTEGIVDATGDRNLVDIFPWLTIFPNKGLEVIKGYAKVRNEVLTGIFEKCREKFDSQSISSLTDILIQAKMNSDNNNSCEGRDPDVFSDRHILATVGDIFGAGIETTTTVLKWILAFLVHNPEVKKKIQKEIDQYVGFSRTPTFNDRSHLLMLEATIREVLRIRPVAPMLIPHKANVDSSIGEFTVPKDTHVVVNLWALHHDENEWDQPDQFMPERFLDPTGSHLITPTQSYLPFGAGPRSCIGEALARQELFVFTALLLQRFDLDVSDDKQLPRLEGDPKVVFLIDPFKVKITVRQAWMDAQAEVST
Procedure: Metabolism of RA by CYP26A1 was measured in microsomes of T47D human breast cancer cells that were pretreated for 16 h with 1 μM RA to induce RA metabolism. Microsomes were prepared exactly as described by [Han and Choi (1996)], and RA metabolism was measured as described by [Van Wauwe et al (1994)]. The conversion of androstenedione to estrone by aromatase (CYP19) in human placental microsomes, the conversion of 17-hydroxy-20-dihydroprogesterone to testosterone by 17,20-lyase (CYP17) in rat testicular S10 fractions, and the 2α-, 7α-, 6β-, and 16β-hydroxylation of testosterone (CYP2C11, CYP2A1, CYP3A, CYP2B1/2) in rat liver microsomes were carried out as described ([Vanden Bossche et al, 1990]).

CYP2C11 = molecular target: T2, CYP2C11 (Rattus norvegicus, UniProt P08683); experiment: Testosterone 2α-hydroxylase in rat liver microsomes; format: biochemical; conditions: Rat liver microsomes
T2 construct: hydroxylation of testosterone (CYP2C11, CYP2A1, CYP3A, CYP2B1/2) in rat liver microsomes; from tissue; host or cells: rat liver, microsomes
T2 sequence (P08683 1-500): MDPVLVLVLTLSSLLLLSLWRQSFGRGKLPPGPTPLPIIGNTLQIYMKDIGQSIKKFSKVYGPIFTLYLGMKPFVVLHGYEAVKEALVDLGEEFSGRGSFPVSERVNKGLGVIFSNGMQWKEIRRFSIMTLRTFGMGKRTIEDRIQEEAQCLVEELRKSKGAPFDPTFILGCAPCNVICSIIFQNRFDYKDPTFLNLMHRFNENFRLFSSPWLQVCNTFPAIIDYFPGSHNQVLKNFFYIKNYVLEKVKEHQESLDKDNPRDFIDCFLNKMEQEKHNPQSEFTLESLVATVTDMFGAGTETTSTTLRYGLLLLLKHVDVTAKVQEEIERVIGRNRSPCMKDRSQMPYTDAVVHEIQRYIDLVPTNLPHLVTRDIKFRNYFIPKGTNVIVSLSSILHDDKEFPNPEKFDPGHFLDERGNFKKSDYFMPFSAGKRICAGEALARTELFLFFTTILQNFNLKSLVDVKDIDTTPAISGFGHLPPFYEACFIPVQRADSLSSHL
Procedure: (§1) The conversion of androstenedione to estrone by aromatase (CYP19) in human placental microsomes, the conversion of 17-hydroxy-20-dihydroprogesterone to testosterone by 17,20-lyase (CYP17) in rat testicular S10 fractions, and the 2α-, 7α-, 6β-, and 16β-hydroxylation of testosterone (CYP2C11, CYP2A1, CYP3A, CYP2B1/2) in rat liver microsomes were carried out as described ([Vanden Bossche et al, 1990]).

CYP2A1 = molecular target: T3, CYP2A1 (Rattus norvegicus, UniProt P11711); experiment: Testosterone 7α-hydroxylase in rat liver microsomes; format: biochemical; conditions: Rat liver microsomes
T3 construct: hydroxylation of testosterone (CYP2C11, CYP2A1, CYP3A, CYP2B1/2) in rat liver microsomes; from tissue; host or cells: rat liver, microsomes
T3 sequence (P11711 1-492): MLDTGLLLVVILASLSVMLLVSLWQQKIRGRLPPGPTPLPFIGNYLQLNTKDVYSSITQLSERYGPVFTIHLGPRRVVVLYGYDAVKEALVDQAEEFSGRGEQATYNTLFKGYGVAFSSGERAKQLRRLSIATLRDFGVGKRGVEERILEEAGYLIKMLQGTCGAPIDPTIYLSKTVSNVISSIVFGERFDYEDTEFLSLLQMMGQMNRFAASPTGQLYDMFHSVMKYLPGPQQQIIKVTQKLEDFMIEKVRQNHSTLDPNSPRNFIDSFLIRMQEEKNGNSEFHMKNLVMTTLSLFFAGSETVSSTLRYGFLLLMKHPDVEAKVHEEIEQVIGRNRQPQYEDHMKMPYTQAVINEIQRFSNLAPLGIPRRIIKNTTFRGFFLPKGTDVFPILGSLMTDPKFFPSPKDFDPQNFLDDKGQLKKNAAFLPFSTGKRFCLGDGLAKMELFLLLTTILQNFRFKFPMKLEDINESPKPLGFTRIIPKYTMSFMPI
Procedure: as §1

CYP2B1/2 = experiment: Testosterone 16β-hydroxylase in rat liver microsomes; format: biochemical; conditions: Rat liver microsomes
Procedure: as §1

T47D cells = experiment: T47D cell proliferation (MTT assay, 7 days); format: cell-based, human
Procedure: T47D cells were seeded in Falcon® 96-well cell culture plates (Life Technologies, Merelbeke, Belgium) at 2500 cells per well in a total volume of 150 μl. Cells were allowed to adhere to plastic for 24 h. Drugs and/or medium were added to a final volume of 200 μl (day 0). Cells were grown under these conditions for 7 days, with renewal of medium and drugs on days 2 and 5. On day 7, medium was renewed and 25 μl MTT-solution was added, and cells were further incubated for 2 h in a cell incubator. The medium was aspirated and 25 μl Sorensen glycine buffer (0.1 M glycine, 0.1 M NaCl; pH 10.5) was added together with 100 μl DMSO to solubilize the blue MTT-formazan product. […] Data are presented as mean±s.d. of three or four independent experiments. Within an experiment, the result of each experimental condition is the mean of six replicate wells. The IC50-values were calculated by non-linear regression analysis using SigmaPlot 4.01 software.

CYP3A = conditions: microsomes
Procedure: as §1

TA3-Ha mammary tumours = experiment: TA3-Ha mammary carcinoma model; conditions: for toxicity findings: at toxic dose: RA 5, R116010 5, liarozole fumarate 20 mg kg^−1; for therapeutic window: maximum tolerated dose versus lowest active dose, TA3-Ha model; for lowest active dose inhibiting TA3-Ha tumour growth: day 1 until day 21, tumour weight
Procedure: (§2) Cells (1.5×10^6) were injected intraperitoneally in syngeneic A/J mice. […] Each group consisted of 10 animals for experiments with R116010 and of six animals for experiments with RA. All treatments were performed by oral gavage. […] The control groups were given the vehicle 20% 4-OH-β-cyclodextrine in sterile saline. Mice were daily examined for adverse drug effects. At the end of the experiments, subcutaneous tumours were excised 24 h after the last treatment and weighed to validate the antitumoural effects of the treatment.
(§3) Data are represented as box plots showing median group value, 25/75th percentile, 10/90th percentile and outliers. Groups were statistically compared to the vehicle-treated groups using the Mann–Whitney U-test. Significance was defined at the level of P<0.05.

in vivo = conditions: mouse, po
Procedure: as §2, §3

Row | SMILES | IC50 [1] | IC50 (17,20-lyase (CYP17)) | IC50 (CYP2C11) | IC50 (CYP2A1) | IC50 (CYP2B1/2) | decrease of T47D cell proliferation by itself (T47D cells; 10 μM, compound alone) | enhancement of the antiproliferative activity of RA (T47D cells; liarozole-fumarate tested up to 10 μM, T47D cells) | IC50 (CYP3A) | toxicity findings (TA3-Ha mammary tumours) | therapeutic window (TA3-Ha mammary tumours) | lowest active dose inhibiting TA3-Ha tumour growth (TA3-Ha mammary tumours; oral, twice daily) | IC50 (T47D cells; Homo sapiens, T47D, 168 h, read-out: IC50 T47D cell proliferation) | MTD (in vivo) | loss of body weight (TA3-Ha mammary tumours; RA 5 mg kg^−1, mice) | dose at which toxicity was observed (TA3-Ha mammary tumours; mice, oral, twice daily, toxicity related to hypervitaminosis A)
1 | Clc1cccc(C(c2ccc3[nH]cnc3c2)n2ccnc2)c1.Clc1cccc(C(c2ccc3[nH]cnc3c2)n2ccnc2)c1.O=C(O)/C=C/C(=O)O.O=C(O)/C=C/C(=O)O.O=C(O)/C=C/C(=O)O (racemic) [liarozole-fumarate, ±-5-[(3-chlorophenyl)(1H-imidazole-1-yl)methyl]-1H-benzimidazole (E)-2-butenedioate (2:3), reference compound] | 1400 nM | 110 nM | 2900 nM | > 10000 nM | 500 nM | approximately 25% | unable to enhance | 400 nM | hair loss and bone fractures | no therapeutic window | 10 mg/kg | – | – | – | –
2 | CC1=C(/C=C/C(C)=C/C=C/C(C)=C/C(=O)O)C(C)(C)CCC1 [RA, All-trans-retinoic acid] | – | – | – | – | – | – | – | – | hair loss, and impaired movement due to bone fractures | does not show a real therapeutic window | 2.5 mg/kg | 2 ± 0.5 nM | 5 mg/kg | 5% | 5 mg/kg
